The test system of data set [1] is E. coli BW25113. In words: Time-dependent killing. Type of data set: cell-based, Escherichia coli. To be noted: 10xMIC (40 μg/ml), MOPS minimal medium, 37°C. The protocol:
(§1) E. coli BW25113 was grown overnight in 5 ml MOPS minimal medium and diluted 1:100 in 3 ml of fresh medium in 14 ml culture tubes. Cells were grown for three to four hours to reach mid-exponential phase (OD600 0.4–0.6) and treated with 10xMIC of LAR (40 μg/ml) or colistin (2.5 to 5 μg/ml) in 1 ml culture at 37°C with agitation at 250 rpm. Cultures were sampled at various times, centrifuged at 10,000 xg for 3 min, and plated on MHA plates. The number of colony forming units (cfu) was determined after incubating plates for 20–24 hr at 37°C. A time-kill assay against A. baumannii C0286 was performed in MHB. For cell lysis assay, cultures were prepared as described above. Initial OD600 was adjusted to 0.15–0.2, and 98 μl of culture was added to a 96-well plate containing 2 μl of compound. The plates were incubated with orbital shaking at maximum speed with a Synergy Microplate Reader (Biotek), and OD600 was measured over 6 h. Experiments were performed in two to three biological replicates. For colistin in cell lysis assay, clumping of cells was observed after ≈2h, leading to a false increase in OD; therefore, data for colistin was not plotted after this period. The plate was manually mixed on a vortex, and the turbidity of colistin-treated wells was confirmed.

The subject of data set [2] is Clostridium perfringens GC1584. To be noted: column MHB; method: BHI + L-cysteine, hemin, vitamin K, anaerobic, 37 °C.
The subject of data set [3] is E. coli BW25113. In words: Cell lysis assay (optical density). The class given is cell-based, Escherichia coli. The following applies: exponential E. coli culture, OD600 over 6 h. How it is done: as §1
Data set [4] concerns Pseudomonas aeruginosa PAO1.
The subject of data set [5] is rabbit reticulocyte lysate (luc mRNA). Nature of the data set: In vitro translation in rabbit reticulocyte lysate. The class given is biochemical. How it is done:
The effect of LAR on eukaryotic translation was assessed using Rabbit Reticulocyte Lysate System (L4960, Promega) programmed with firefly luciferase mRNA. In vitro reactions were assembled according to the manufacturer’s protocol in a nal volume of 10 μL supplemented with 0.02–50 μM of LAR or no antibiotic and incubated for 90 min at 30°C. After that, 2.5 μL from each reaction was mixed with 50 μl of prewarmed luciferase assay reagent, and the luminescence was measured in Infinite M200 PRO plate reader (TECAN) for 10 min at 25°C. The assay was performed in triplicate.

For data set [6], the system named is ribosomes (E. coli PURExpress). In words: Toeprinting assay. Type of data set: biochemical, Escherichia coli. To be noted: 1, 5 or 10 μM LAR, RST1 template. How it is done: Toe-printing analysis was carried out in the E. coli in vitro transcription-translation system assembled from the purified components (PURExpress, NEB) as described previously. Reactions either contained no antibiotic or were supplemented with 50 μM retapamulin or varying concentrations of LAR (1, 5, or 10 μM). The model RST1 template encoding a 21-aa long peptide containing all 20 proteinogenic amino acids[22] was generated by PCR using the primers RST1_F and FIRST1_R (Supplementary Table 1).

Data set [7] has as its system E coli BW25113 ΔbamBΔtolC. The following applies: 18–22 h.
Data set [8] has as its system E. coli BW25113. Nature of the data set: Selection of spontaneous resistant mutants. The class given is cell-based, Escherichia coli. To be noted: ~10^9 cfu on MOPS minimal agar, 37°C, 24–48 h.
For another data set, the system named is bacteria (Table 1). In words: MIC in nutrient-limited media. To be noted: nutrient-limited media vs MHB. Type of data set: cell-based. How it is done: MICs were determined using broth microdilution method in cation-adjusted Mueller-Hinton Broth (MHBII, BD Difco) following standard procedures unless stated otherwise. Mycobacteria susceptibility was tested in Middlebrook 7H9 medium supplemented with 10% OADC Enrichment (oleic acid, bovine albumin, dextrose, and catalase) (BD Difco). The compounds (2 to 4 μl) were mixed with diluted cultures (5–7 × 10^5 cfu/mL) in MHB (196 to 198 μL) in 96-well round-bottom plates, and 2-fold serial dilutions were made. Plates were incubated at 37°C for 18–22 h, and OD600 readings were taken on Synergy Microplate Reader (Biotek). MIC was determined to be the lowest concentration of antibiotics with no visible growth. For Mycobacterial cultures, the plates were read after two to three days. Susceptibility was also assessed in MOPS minimal medium with 0.4% glucose (M2106 Teknova) and RPMI-1640 medium. Serum effects were tested in MHB with 10% or 50% fetal bovine serum (Invitrogen) or human serum (Heat Inactivated, from human male AB plasma; Sigma-Aldrich). For anaerobic conditions, E. coli was incubated in BD GasPak™ EZ pouch systems. To adjust the pH of the media, 1M NaOH or 1N HCl was used.

The next data set concerns HEK293 cells. Nature of the data set: Cytotoxicity against human cells.
The next data set deals with E coli BW25113 ΔtolC. To be noted: 18–22 h.
For a further data set, the system named is E coli BW25113 ΔbamB. The following applies: 18–22 h.

The structures appear in SMILES notation. In brackets after ≈: the same amount, converted by molar mass. Entries after “also recorded” stand apart in the source; their conditions may differ. Where two headings read alike, the source gives them in different places. Where a SMILES comes first, the peptide text is derived from it. Bridges are numbered along the chain shown (N, C = ends). Where only a bound is given, the exact number is not on record here.

As a reminder, the MIC is the lowest concentration found to suppress growth. By IC50 is commonly meant the concentration at which inhibition is half-maximal. Take `CC(C)[C@H](NC(=O)CNC(=O)[C@H](CCCNC(=N)N)NC(=O)CNC(=O)[C@H](Cc1ccccc1)NC(=O)[C@H](CCCCN)NC(=O)CNC(=O)[C@@H]1CC(=O)N[C@@H](CO)C(=O)N[C@@H](CCCCN)C(=O)N[C@@H](CCCCN)C(=O)N[C@@H](CO)C(=O)N[C@@H](CCCCN)C(=O)N2CCC[C@H]2C(=O)NCC(=O)N1)C(=O)N[C@@H](CCCCN)C(=O)N[C@@H](CCCNC(=N)N)C(=O)NCC(=O)O` [LAR, lariocidin] (SKKSKPGDGKFGRGVKRG-OH; lactam N-8): in the data set on E. coli BW25113 [1], the “Viable cell count / bactericidal activity” value is recorded as “dramatically reduced the viable cell count; also recorded: exhibits bactericidal activity”. Further, the MIC in data set [2] is above 256 µg/mL; in [4] it was 64 to 128 µg/mL; in [7] (MHB, 37°C) it was 2 to 4 µg/mL; in [7] (RPMI-1640, 37°C), at most 0.25 µg/mL; in the data set with E coli BW25113 ΔtolC (MHB, 37°C), 2 to 4 µg/mL; against E coli BW25113 ΔtolC (RPMI-1640, 37°C) it was 0.5 µg/mL (≈ 0.267 µM). The MIC is 32 µg/mL (≈ 17.1 µM) against E coli BW25113 ΔbamB (MHB, 37°C); 1 µg/mL (≈ 0.534 µM) in the data set on E coli BW25113 ΔbamB (RPMI-1640, 37°C); 1 to 2 µg/mL in the data set on M. smegmatis MC^2 155. The “Effect on culture optical density (lysis)” value in the data set on E. coli BW25113 [3] is on record as “did not cause a decrease in the optical density of the culture below the initial point”. Besides, the “Effect on eukaryotic translation” value in data set [5] is “only a marginal effect on eukaryotic translation”. For the same compound, the IC50 in data set [5] (luc mRNA, 0.02–50 μM LAR, 90 min, 30°C, luminescence, mean of three experiments, read-out: IC50, protein biosynthesis) came out at 14.2 µM. For the same compound, the “IC50 in mammalian cell-free translation vs bacterial” value in data set [5] (ratio to E. coli system IC50) is recorded as ~ 58 fold. In addition, in data set [6], the “Ribosome stalling (toeprint)” value is listed as “predominantly arrested at the start codon of a model mRNA but also stalled at internal codons of the ORF”. The “Frequency of resistant mutants” value in the data set with E. coli BW25113 [8] is ~ 10^−8. The “MIC reduction in nutrient-limited media” value with bacteria (Table 1) was at most 128 fold. In addition, in the data set with HEK293 cells, the “Cytotoxicity against human cells” value was “no human cell toxicity; also recorded: did not display hemolytic activity or cytotoxicity against human cells”. In the data set on M. smegmatis MC^2 155, the “MIC (text)” value was in the range of 1 to 2 µg/mL.

The values above are taken from article PMC11451635, “A Broad Spectrum Lasso Peptide Antibiotic Targeting the Bacterial Ribosome” (Research Square, 2024).
